pIC50: −log10 of the molar value.
What was measured:
HDAC8 = HDAC8 (Homo sapiens (Human), UniProt Q9BY41); conditions: read-out: HDAC8 IC50
HDAC1 = HDAC1 (Homo sapiens (Human), UniProt Q13547); conditions: read-out: HDAC1 IC50
HDAC1, sequence (Q13547 whole entry): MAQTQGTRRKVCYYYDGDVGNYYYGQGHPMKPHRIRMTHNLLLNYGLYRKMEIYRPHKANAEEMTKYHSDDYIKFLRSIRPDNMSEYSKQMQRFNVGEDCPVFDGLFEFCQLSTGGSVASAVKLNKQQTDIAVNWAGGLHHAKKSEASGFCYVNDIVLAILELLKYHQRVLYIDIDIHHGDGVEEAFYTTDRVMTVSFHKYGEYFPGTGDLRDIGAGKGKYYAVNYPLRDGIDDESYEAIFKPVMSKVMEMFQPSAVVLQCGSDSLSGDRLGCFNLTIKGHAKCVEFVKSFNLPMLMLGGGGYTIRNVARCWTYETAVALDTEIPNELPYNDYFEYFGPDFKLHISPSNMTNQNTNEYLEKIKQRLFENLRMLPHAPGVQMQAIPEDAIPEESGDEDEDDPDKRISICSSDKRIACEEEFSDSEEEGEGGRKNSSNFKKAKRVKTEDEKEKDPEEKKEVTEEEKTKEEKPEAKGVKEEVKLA

HDAC8, sequence (Q9BY41 whole entry): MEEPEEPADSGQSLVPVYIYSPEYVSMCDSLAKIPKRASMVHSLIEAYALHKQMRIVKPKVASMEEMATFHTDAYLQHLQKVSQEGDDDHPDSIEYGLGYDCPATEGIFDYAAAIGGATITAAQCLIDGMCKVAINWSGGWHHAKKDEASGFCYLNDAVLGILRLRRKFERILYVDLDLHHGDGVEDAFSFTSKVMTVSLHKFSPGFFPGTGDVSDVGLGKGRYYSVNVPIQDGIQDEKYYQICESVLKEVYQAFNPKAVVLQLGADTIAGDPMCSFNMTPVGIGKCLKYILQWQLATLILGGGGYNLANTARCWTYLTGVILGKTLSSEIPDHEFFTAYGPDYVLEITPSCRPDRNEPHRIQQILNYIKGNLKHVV

Row | SMILES | pIC50 (HDAC8) | pIC50 (HDAC1)
1 | O=C1N(CC2CCOCC2)CC(c2ccccc2)N1c1ccc(-c2noc(C(F)(F)F)n2)cc1 (racemic) [Example 422, 4-phenyl-1-(tetrahydro-2H-pyran-4-ylmethyl)-3-{4-[5-(trifluoromethyl)-1,2,4-oxadiazol-3-yl]phenyl}imidazolidin-2-one] | 5.40 | 5.47
2 | Cc1ncc(CC(=O)N(Cc2ccc(-c3noc(C(F)(F)F)n3)cn2)c2cccc(F)c2)s1 [Example 394, N-(3-fluorophenyl)-2-(2-methyl-1,3-thiazol-5-yl)-N-({5-[5-(trifluoromethyl)-1,2,4-oxadiazol-3-yl]pyridin-2-yl}methyl)acetamide] | 5.62 | 6.14
3 | O=C1CCC(NCc2ccc(-c3noc(C(F)(F)F)n3)cn2)c2ccccc2N1 (racemic) [Example 381, 5-[({5-[5-(trifluoromethyl)-1,2,4-oxadiazol-3-yl]pyridin-2-yl}methyl)amino]-1,3,4,5-tetrahydro-2H-1-benzazepin-2-one] | 5.41 | 6.28
4 | NC(=O)c1ccnc(NCc2ccc(-c3noc(C(F)(F)F)n3)cn2)c1 [Example 442, 2-[({5-[5-(trifluoromethyl)-1,2,4-oxadiazol-3-yl]pyridin-2-yl}methyl)amino]pyridine-4-carboxamide] | 6.12 | 6.55
5 | CC(C)(C)OC(=O)C1COCC(=O)N1c1ccc(-c2noc(C(F)(F)F)n2)c(F)c1 (stereo not shown) [Example 468, tert-butyl 4-{3-fluoro-4-[5-(trifluoromethyl)-1,2,4-oxadiazol-3-yl]phenyl}-5-oxomorpholine-3-carboxylate] | 5.26 | 6.03
6 | O=C1CCC(c2ccc(Cl)cc2)N1c1ccc(-c2noc(C(F)(F)F)n2)cc1F (stereo not shown) [Example 119, 5-(4-chlorophenyl)-1-(2-fluoro-4-(5-(trifluoromethyl)-1,2,4-oxadiazol-3-yl)phenyl)pyrrolidin-2-one] | 5.89 | 6.14
7 | CN(C)c1cccc(COc2cc(-c3noc(C(F)(F)F)n3)ccn2)n1 [Example 101, N,N-dimethyl-6-(((4-(5-(trifluoromethyl)-1,2,4-oxadiazol-3-yl)pyridin-2-yl)oxy)methyl)pyridin-2-amine] | 4.77 | 4.70
8 | Cn1nccc1CCOc1cc(-c2noc(C(F)(F)F)n2)ccn1 [Example 387, 2-[2-(1-methyl-1H-pyrazol-5-yl)ethoxy]-4-[5-(trifluoromethyl)-1,2,4-oxadiazol-3-yl]pyridine] | 6.06 | 5.51
9 | FC(F)(F)c1nc(-c2ccc(COc3ccc4ccccc4n3)nc2)no1 [Example 461, 2-({5-[5-(trifluoromethyl)-1,2,4-oxadiazol-3-yl]pyridin-2-yl}methoxy)quinoline] | 4.68 | 6.30
10 | O=C1CCC(c2ccccc2Cl)N1c1ccc(-c2noc(C(F)(F)F)n2)c(F)c1 (racemic) [Example 37, 5-(2-chlorophenyl)-1-(3-fluoro-4-(5-(trifluoromethyl)-1,2,4-oxadiazol-3-yl)phenyl)pyrrolidin-2-one] | 5.00 | 4.80
11 | O=C(C1COCCO1)N(Cc1ccc(-c2noc(C(F)(F)F)n2)cc1)c1cccc(C(F)(F)F)c1 (racemic) [Example 84, N-(4-(5-(trifluoromethyl)-1,2,4-oxadiazol-3-yl)benzyl)-N-(3-(trifluoromethyl)phenyl)-1,4-dioxane-2-carboxamide] | 5.62 | 6.02
12 | Cn1nccc1COc1cc(-c2noc(C(F)(F)F)n2)ccn1 [Example 221, 2-[(1-methyl-1H-pyrazol-5-yl)methoxy]-4-[5-(trifluoromethyl)-1,2,4-oxadiazol-3-yl]pyridine] | 5.80 | 5.55
13 | CC(C)C(=O)N1CCC(C(=O)N(Cc2ccc(-c3noc(C(F)(F)F)n3)cc2)c2cccc(C(F)(F)F)c2)CC1 [Example 90, 1-isobutyryl-N-(4-(5-(trifluoromethyl)-1,2,4-oxadiazol-3-yl)benzyl)-N-(3-(trifluoromethyl)phenyl)piperidine-4-carboxamide] | 5.60 | 5.85
14 | CC(C)(C)OC(=O)N1CC(=O)N(c2ccc(-c3noc(C(F)(F)F)n3)cc2)[C@H](c2ccccc2)C1 (racemic) [Example 163, tert-butyl 3-oxo-5-phenyl-4-(4-(5-(trifluoromethyl)-1,2,4-oxadiazol-3-yl)phenyl)piperazine-1-carboxylate] | 5.37 | 5.77
15 | FC(COc1cc(-c2noc(C(F)(F)F)n2)ccn1)CN1CCOCC1 (racemic) [Example 427, 4-[2-fluoro-3-({4-[5-(trifluoromethyl)-1,2,4-oxadiazol-3-yl]pyridin-2-yl}oxy)propyl]morpholine] | 6.00 | 5.29
16 | O=C1CCC[C@@H](c2nc3ccccc3s2)N1c1ccc(-c2noc(C(F)(F)F)n2)cc1 [Example 25, (S)-6-(Benzo[d]thiazol-2-yl)-1-(4-(5-(trifluoromethyl)-1,2,4-oxadiazol-3-1)phenyl)piperidin-2-one] | 6.13 | 6.66

Row | SMILES | pIC50 (HDAC8) | pIC50 (HDAC1)
17 | FC(F)(F)c1nc(-c2ccc(CNc3ccc4c[nH]nc4c3)cc2)no1 [Example 411, N-{4-[5-(trifluoromethyl)-1,2,4-oxadiazol-3-yl]benzyl}-2H-indazol-6-amine] | 5.66 | 6.00
18 | O=C1C(C2CCOCC2)NC[C@@H](c2cc(F)cc(F)c2)N1c1ccc(-c2noc(C(F)(F)F)n2)cn1 (stereo partly drawn) [Example 38, (6R)-6-(3,5-difluorophenyl)-3-(tetrahydro-2H-pyran-4-yl)-1-(5-(5-(trifluoromethyl)-1,2,4-oxadiazol-3-yl)pyridin-2-yl)piperazin-2-one] | 4.80 | 5.37
19 | O=c1ccc2ccccc2n1Cc1ccc(-c2noc(C(F)(F)F)n2)cc1 [Example 28, 1-(4-(5-(Trifluoromethyl)-1,2,4-oxadiazol-3-yl)benzyl)quinolin-2(1H)-one] | 5.80 | 6.12
20 | CN1CCN(c2ccc(-c3noc(C(F)(F)F)n3)cc2)C(c2ccccc2)C1 (stereo not shown) [Example 33, 3-(4-(4-Methyl-2-phenylpiperazin-1-yl)phenyl)-5-(trifluoromethyl)-1,2,4-oxadiazole] | 5.41 | 5.28
21 | FC(F)(F)c1nc(-c2ccc(CN(c3ccccn3)c3ccccn3)cc2)no1 [Example 27, N-(Pyridin-2-yl)-N-(4-(5-(trifluoromethyl)-1,2,4-oxadiazol-3-yl)benzyl)pyridin-2-amine] | 5.32 | 5.43
22 | Cc1noc([C@@H]2COCC(=O)N2c2ccc(-c3noc(C(F)(F)F)n3)cc2)n1 [Example 47, (S)-5-(3-methyl-1,2,4-oxadiazol-5-yl)-4-(4-(5-(trifluoromethyl)-1,2,4-oxadiazol-3-yl)phenyl)morpholin-3-one] | 5.52 | 5.82
23 | CN1CCOC(CNCc2ccc(-c3noc(C(F)(F)F)n3)cn2)C1 (racemic) [Example 452, 1-(4-methylmorpholin-2-yl)-N-({5-[5-(trifluoromethyl)-1,2,4-oxadiazol-3-yl]pyridin-2-yl}methyl)methanamine] | 5.62 | 5.55
24 | CC1(C)CC(c2ccccc2)N(c2ccc(-c3noc(C(F)(F)F)n3)cc2F)C1=O (racemic) [Example 312, 1-{2-fluoro-4-[5-(trifluoromethyl)-1,2,4-oxadiazol-3-yl]phenyl}-3,3-dimethyl-5-phenylpyrrolidin-2-one] | 4.35 | 5.85
25 | Cc1nc2ccc(F)cc2n1Cc1ccc(-c2noc(C(F)(F)F)n2)cc1F [Example 99, 3-(3-fluoro-4-((6-fluoro-2-methyl-1H-benzo[d]imidazol-1-yl)methyl)phenyl)-5-(trifluoromethyl)-1,2,4-oxadiazole] | 5.23 | 5.72
26 | Cc1cn(C(C)C(=O)N(Cc2ccc(-c3noc(C(F)(F)F)n3)cn2)c2cccc(F)c2)nn1 (racemic) [Example 64, N-(3-fluorophenyl)-2-(4-methyl-1H-1,2,3-triazol-1-yl)-N-((5-(5-(trifluoromethyl)-1,2,4-oxadiazol-3-yl)pyridin-2-yl)methyl)propanamide] | 5.55 | 6.70
27 | Cc1ncc(C(=O)N(Cc2ccc(-c3noc(C(F)(F)F)n3)cn2)c2cccc(F)c2)cn1 [Example 401, N-(3-fluorophenyl)-2-methyl-N-({5-[5-(trifluoromethyl)-1,2,4-oxadiazol-3-yl]pyridin-2-yl}methyl)pyrimidine-5-carboxamide] | 5.48 | 6.54
28 | FC(F)(F)c1nc(-c2ccc(CNc3c[nH]nn3)nc2)no1 [Example 431, N-({5-[5-(trifluoromethyl)-1,2,4-oxadiazol-3-yl]pyridin-2-yl}methyl)-1H-1,2,3-triazol-4-amine] | 5.72 | 5.37
29 | Cc1cc(NCc2ccc(-c3noc(C(F)(F)F)n3)cn2)on1 [Example 380, 3-methyl-N-({5-[5-(trifluoromethyl)-1,2,4-oxadiazol-3-yl]pyridin-2-yl}methyl)-1,2-oxazol-5-amine] | 5.85 | 6.03
30 | Cc1noc(CC(=O)N(Cc2ccc(-c3noc(C(F)(F)F)n3)cn2)c2cccc(F)c2)n1 [Example 396, N-(3-fluorophenyl)-2-(3-methyl-1,2,4-oxadiazol-5-yl)-N-({5-[5-(trifluoromethyl)-1,2,4-oxadiazol-3-yl]pyridin-2-yl}methyl)acetamide] | 6.00 | 6.42
31 | FC(F)(F)c1nc(-c2ccc(N3CCOCC3c3cccnc3)nc2)no1 (stereo not shown) [Example 143, 3-(pyridin-3-yl)-4-(5-(5-(trifluoromethyl)-1,2,4-oxadiazol-3-yl)pyridin-2-yl)morpholine] | 5.55 | 5.21
32 | CC(C)(C(=O)N(Cc1ccc(-c2noc(C(F)(F)F)n2)cn1)c1cccc(F)c1)n1cccn1 [Example 391, N-(3-fluorophenyl)-2-methyl-2-(1H-pyrazol-1-yl)-N-({5-[5-(trifluoromethyl)-1,2,4-oxadiazol-3-yl]pyridin-2-yl}methyl)propanamide] | 5.13 | 5.85
